Where a SMILES comes first, the peptide text is derived from it. [ ]: non-standard residue; d: D form. The star is where a group is joined. X1 = O=C(CCCCSc1[nH]cnc2ncnc1-2)*; Orn = NCCC[CH](N)C(=O)O; NHtBu = CC(C)(C)N*
Compound | logP
S=C=NCCCCc1cccnc1 | 2.7
CCN(CC)C(=O)COC(=O)c1ccccc1O | 1.99
O=[N+]([O-])c1c(Cl)c(Cl)cc(Cl)c1Cl | 4.38
CCCC(=O)OCCOCn1cnc2c(=O)[nH]c(N)nc21 | -0.08
O=[N+]([O-])C=C1NCCN1Cc1ccc(Cl)nc1 | -0.19
c1ccc2c(c1)Cc1ccccc1S2 | 3.86
CC(=O)Nc1c(I)c(C(=O)NC(CO)CO)c(I)c(C(=O)NC(CO)CO)c1I | -2.27
COCCn1cnc2c(=O)[nH]c(Nc3ccccc3)nc21 | 1.2
CN(C)c1nc(=O)cc(-c2ccc([N+](=O)[O-])o2)s1 | 0.55
CC(=O)c1ccc(O)c2ncccc12 | 1.8
CCN(CC)C(=O)N(C)SN(C)C(=O)ON=C(C)SC | 3.2
CC(C)(C)C(=O)CC(C(O)C(C)(C)C)n1cncn1 (centres undefined) | 1.95
CCOC(CC)(OCC)OCC | 1.97
CN(CC1(C)CCCO1)S(=O)(=O)c1ccc(Cl)c(S(N)(=O)=O)c1 (centres undefined) | 1.54
NC(=O)CC(CC(=O)O)c1ccc(Br)cc1 (centres undefined) | 1.12
CC1CC(C(=O)O)=C(C(=O)O)C(C)C1 (centres undefined) | 1.53
Sc1nc(-c2ccccc2)ns1 | 2.13
COc1nc(N(C)C)nc(C(Cl)(Cl)Cl)n1 | 3.33
CC1COC(Cn2cncn2)(c2ccc(Oc3ccc(Cl)cc3)cc2Cl)O1 (centres undefined) | 4.3
CCC(=O)C1(c2cccc(O)c2)CCN(C)CC1 | 1.02
CCN(C)N=Nc1ccccc1C(N)=O | 2.59
CCCCCOc1ccc2ccc(=O)oc2c1 | 3.92
Cc1nccc2c1[nH]c1ccccc12 | 3.1
CCN(CC)S(=O)(=O)N(CC)C1C=C2c3cccc4[nH]cc(c34)CC2N(C)C1 (centres undefined) | 3.09

Compound | logP
CCCCCCOC(=O)Oc1cccc(C2(C(=O)CC)CCN(C)CC2)c1 | 3.38
CCCCC(=O)OCCOCn1cnc2c(=O)[nH]c(N)nc21 | 0.37
Clc1ccc(Sc2nc(C(Cl)(Cl)Cl)nc(C(Cl)(Cl)Cl)n2)cc1 | 6.67
CSCCC(NC(C)=O)C(=O)NC(Cc1ccccc1)C(N)=O (centres undefined) | 0.42
CC(=O)OC1C(=O)C2(C)C(O)CC3OCC3(OC(C)=O)C2C(OC(=O)c2ccccc2)C2(O)CC(OC(=O)C(C)O)C(C)=C1C2(C)C (centres undefined) | 1.52
O=C(NCCO)C(F)(F)Cn1cnc([N+](=O)[O-])n1 | -0.77
Cc1cc(Cl)cc(Cl)c1 | 3.99
CC(C)(C)NC(=O)C1CN(S(=O)(=O)c2cccc3cccnc23)CCN1CC(O)CC(Cc1ccccc1)C(=O)NC1c2ccccc2CC1O (centres undefined) | 3.7
CC1CC2C3CCC4=CC(=O)C=CC4(C)C3(F)C(O)CC2(C)C1(O)C(=O)NCCCl (centres undefined) | 2.73
CCC1COC(Cn2cncn2)(c2ccc(NC(=O)c3ccc([N+](=O)[O-])cc3)cc2)O1 (centres undefined) | 2.17
CSC1=NCCN1c1ccc([N+](=O)[O-])o1 | 1.19
CC(=O)NC(CC(C)C)C(=O)NC(CC(=O)O)C(=O)NC(CC(C)C)C(N)=O (stereo not drawn) (Ac-Leu-Asp-Leu-NH2; configuration not given here) | 0.16
Cc1c(Cl)c(Cl)c(Cl)c(Cl)c1Cl | 5.62
CC(=O)NC(CC(C)C)C(=O)NC(CCC(=O)O)C(=O)NC(Cc1ccccc1)C(N)=O (stereo not drawn) (Ac-Leu-Glu-Phe-NH2; configuration not given here) | 0.47
CCC1CC(C(=O)NC(C(C)O)C2OC(SC)C(O)C(O)C2O)N(C)C1 (centres undefined) | -0.4
CC(=O)NC(CC(C)C)C(=O)NC(CCCN)C(=O)NC(Cc1ccccc1)C(N)=O (centres undefined) (Ac-Leu-[Orn]-Phe-NH2; configuration not given here) | 0.53
CCCCOC(=O)C(C(=O)OCCCC)=C1SCCS1 | 4.6
CCC1COC(Cn2cncn2)(c2ccc(NC(=O)NC)cc2)O1 (centres undefined) | 0.62
CCOC(=O)CNC(=O)CNC(=O)CNC(=O)CNC(=O)CCCCSc1[nH]cnc2ncnc1-2 (X1-GGGG-OEt) | -0.23
NS(=O)(=O)c1ccc2ccccc2c1 | 1.55
Cc1n[nH]c(C(=O)NC2CCCCC2)c1[N+](=O)[O-] | 1.71
Cc1nc(Br)c([N+](=O)[O-])n1C | 0.87
Cc1cc(Cl)c(Cl)cc1Cl | 4.56
Cc1ccc(Cl)c(Cl)c1 | 3.95

Compound | logP
O=C(NCCCCO)C(F)(F)Cn1ccnc1[N+](=O)[O-] | -0.29
O=c1nc(N=CN2CCCCC2)ccn1C1OC(CO)C(O)C1O (centres undefined) | -0.66
Cc1ccc(C(=O)OCCN(C)C)cc1 | 2.53
CCC(C)N1C(=O)C(=O)c2ccccc2C1=O (centres undefined) | 2.15
CCCCCCOc1cccc(NC(=O)OCCN2CCOCC2)c1 | 4.73
CCCC(=O)OCn1ncc2c(=O)[nH]cnc21 | 0.6
CCC(CC)C(=O)NS(=O)(=O)c1ccc(C(F)(F)F)cc1N | 3.04
Cc1[nH]cnc1CSCCNC1=NC(=O)CN1 | -0.5
CSC(=O)c1c(C(F)F)nc(C(F)(F)F)c(C(=O)SC)c1CC(C)C | 4.75
CC1CC2C3CCC4=CC(=O)C=CC4(C)C3(F)C(O)CC2(C)C1(O)C(=O)NCCO (centres undefined) | 1.51
CC(C)(C)C(COc1ccc(S(C)(=O)=O)cc1)OC(=O)n1ccnc1 (centres undefined) | 2.59
FC(F)(F)C1(F)C(F)(F)C(F)(F)C(F)(N2C(F)(F)C(F)(F)C(F)(F)C(F)(F)C2(F)F)C(F)(F)C1(F)F (centres undefined) | 7.1
CC(C)(C)C(=O)C(C#N)=NNc1cc(C(F)(F)F)cc(C(F)(F)F)c1 | 5.44
Cc1cccc(C(=O)NN(C(=O)c2ccccc2Cl)C(C)(C)C)c1 | 3.11
OCC1CCC(n2cnc3cncnc32)O1 (centres undefined) | -0.47
CCCC(=O)OC(C(=O)NC1C(=O)N2C(C(=O)O)=C(C)CSC12)c1ccccc1 (centres undefined) | 1.89
C#CCC(O)(c1cccnc1)c1ccc(Cl)cc1Cl (centres undefined) | 2.29
COCCNC(=S)Cn1cnc([N+](=O)[O-])n1 | 0.25
CCCCN1C(=O)C(=O)c2ccccc2C1=O | 2.18
O=C(O)C(Cc1ccc(O)cc1)n1cccc1 (centres undefined) | 1.56
CCC(=O)C(CS(=O)(=O)c1ccc(C)cc1)c1ccccc1 (centres undefined) | 2.45
C[C@H]1OC(O[C@H]2[C@@H](O)CC(O[C@H]3[C@@H](O)CC(O[C@H]4CC[C@@]5(C)[C@H](CC[C@@H]6[C@@H]5CC[C@]5(C)[C@@H](C7=CC(=O)OC7)[C@@H](OC=O)C[C@]65O)C4)O[C@@H]3C)O[C@@H]2C)C[C@H](O)[C@@H]1O (some centres undefined) | 2.04
CC(C)(C)C(=O)OCCOCn1cnc2c(=O)[nH]c(N)nc21 | 0.3
O=[N+]([O-])c1nccn1COC(CO)CO | -1.17

Compound | logP
CC(C)(C)c1ccc2c(c1)OCCOCCOCCOCCO2 | 2.26
CCCCC(NC(Cc1ccccc1)C(=O)N1CCC(OCOC)CC1)C(=O)NC(CC1CCCCC1)C(O)CC(C(=O)NCCC[N+]1([O-])CCOCC1)C(C)C (centres undefined) | 3.6
CC(C)N(C=Nc1ccn(C2OC(CO)C(O)C2O)c(=O)n1)C(C)C (centres undefined) | 0.01
CC(=O)NC(Cc1ccccc1)C(=O)NC(CC(=O)O)C(=O)NC(CC(C)C)C(N)=O (stereo not drawn) (Ac-Phe-Asp-Leu-NH2; configuration not given here) | 0.39
C#CCOc1c(Cl)cc(NC=NOCCOCC)cc1Cl | 3.7
C#CCOc1c(Cl)cc(NC=NOCC)cc1Cl | 3.6
CCOC(=O)c1cc(S(N)(=O)=O)c(Cl)cc1NCc1ccco1 | 2.67
CC1CSC2C(NC(=O)C(O)c3ccccc3)C(=O)N2C1C(=O)O (centres undefined) | 0.47
CCCNc1nc(C(Cl)(Cl)Cl)nc(C(Cl)(Cl)Cl)n1 | 4.09
Cn1c([N+](=O)[O-])cnc1C(N)=O | 0.29
CC(=O)c1ccc2c(c1)OCCOCCOCCOCCOCCO2 | -0.05
O=C(O)c1ccccc1N1C(=O)CCC1=O | 1.55
O=C(N/N=C/c1ccc[nH]1)Nc1ccccc1 | 2.96
O=C1CC(Sc2nc3ccccc3s2)N1 (centres undefined) | 2.3
COc1ccc2ccc(=O)oc2c1 | 1.74
COC(=O)c1ccc(OCC(OC(=O)n2ccnc2)C(C)(C)C)cc1 (centres undefined) | 3.59
CC(=O)NC(C)C(=O)N1CCCC1C(=O)NC(C)C(=O)NC(C)(C)C (stereo not drawn) (Ac-Ala-Pro-Ala-NHtBu; configuration not given here) | -0.39
Cc1ccccc1C(=O)NN(C(=O)c1ccccc1Cl)C(C)(C)C | 2.91
COC(=O)c1ccc2[nH]ccc2c1 | 2.58
CCN1C(=O)C(=O)c2c(Cl)cccc2C1=O | 1.43
Clc1cc2c(cc1Cl)Oc1c(Cl)ccc(Cl)c1O2 | 6.39
C#CC1(OC(=O)C2=CN(C)C=CC2)CCC2C3CCC4=CC(=O)CCC4C3CCC21C (centres undefined) | 4.44
COC(=O)n1cnc(CC(NC(=O)C2CCC(=O)N2)C(=O)N2CCCC2C(N)=O)c1 (centres undefined) | -1.88
O=[N+]([O-])C=C1NCCN1c1ccc(Cl)nc1 | -0.23

Compound | logP
CC1=NCCC1 | 1.87
CC1(C)CCC(C)(C)N1[O] | 1
CCN1CC(C(O)C(CC2CCCCC2)NC(=O)C(Cc2c[nH]cn2)NC(=O)C(Cc2ccc(OC)cc2)NC(=O)C(C)C)OC1=O (centres undefined) | 2.85
NC1=NCC2c3ccccc3Cc3ccccc3N12 (centres undefined) | 3.51
CC(C)(C)N(NC(=O)c1cccc(F)c1)C(=O)c1ccccc1Cl | 2.88
CCCCCOc1ccc(NC(=O)OCCN2CCOCC2)cc1 | 3.96
Cc1nc(Cl)c([N+](=O)[O-])n1C | 0.87
Nc1c2ncn(C3OC(CO)CC3F)c2nc[n+]1[O-] (centres undefined) | -1.38
CSc1nc(Nc2ccc(Cl)cc2)nc(C(Cl)(Cl)Cl)n1 | 5.71
COc1cccc(OC)c1-c1nc2ccncc2[nH]1 | 1.66
CC(=O)N[C@@H](Cc1c[nH]c2ccccc12)C(=O)N[C@@H](C)C(=O)N[C@@H](C)C(N)=O (Ac-Trp-Ala-Ala-NH2) | -0.38
CCCCCC(=O)OCCOCn1cnc2c(=O)[nH]c(N)nc21 | 0.93
C#CCCOCn1ccnc1C=NO | 0.67
O=C(O)c1ccc(CCl)cc1 | 2.12
CC(C)CNCCCS(=O)(=O)c1ccc(S(N)(=O)=O)s1 | -0.35
CCN1C(=O)C(=O)c2c(C#N)cccc2C1=O | 0.41
CN(CO)c1nc(N(C)CO)nc(N(C)CO)n1 | 0.4
N=c1ccn2c(n1)OC1C(O)C(CCl)OC12 (centres undefined) | -3.1
C[C@H](O)C(=O)Nc1c(I)c(C(=O)NC(CO)CO)c(I)c(C(=O)NC(CO)CO)c1I | -2.42
CCCc1ccc(OCC(C)O)c2c(=O)cc(C(=O)O)oc12 (centres undefined) | 3
CCNC(=O)c1cccc2c1C(=O)C(=O)N(CC)C2=O | 0.3
Clc1ccc(-c2c(Cl)c(Cl)c(Cl)c(Cl)c2Cl)cc1 | 7.31
CC(=O)C12OC(C)(c3ccc(F)cc3)OC1CC1C3CCC4=CC(=O)CCC4(C)C3CCC12C (centres undefined) | 5.7
